Test results published in patent US4450269A, “Mono-5-substituted-3-chloro-4H-1,2,6-thiadiazin-4-one antifungal agents” (FMC Corporation, priority 1980, dated 1984).
Where a name gives a salt, the structure may show the parent alone.

How the values were obtained:
Uromyces phaseoli [1] = test: whole plant or invertebrate; details: foliar, read-out: Percent Disease Control, foliar, bean rust
Uromyces phaseoli [2] = test: Spore germination test; format: cell-based; details: UP, 48 hours
Outline: (§1)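 Compound in acetone was mixed into water agar at final 40, 10, 2.5 and 1 ppm and poured into quadrant dishes. Quadrants received spore suspension, while Erysiphe polygoni and Uromyces phaseoli spores were brushed on from infected leaves. After 48 h at 24 °C, the percentage of germinated spores was converted to a germination rating.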

Alternaria solani = test: Spore germination test; format: cell-based; details: AS, 48 hours
Outline: as §1

Botrytis cinerea = test: Spore germination test; format: cell-based; details: BC, 48 hours
Outline: as §1

Compound	pest or weed control at 150 ppm (Uromyces phaseoli [1]) [%]	Spore Germination Rating (Uromyces phaseoli [2]; 1.0 ppm)	Spore Germination Rating (Uromyces phaseoli [2]; 2.5 ppm)	Spore Germination Rating (Uromyces phaseoli [2]; 10 ppm)	Spore Germination Rating (Uromyces phaseoli [2]; 40 ppm)	Spore Germination Rating (Alternaria solani; 1.0 ppm)	Spore Germination Rating (Alternaria solani; 2.5 ppm)	Spore Germination Rating (Alternaria solani; 10 ppm)	Spore Germination Rating (Alternaria solani; 40 ppm)	Spore Germination Rating (Botrytis cinerea; 1.0 ppm)	Spore Germination Rating (Botrytis cinerea; 2.5 ppm)	Spore Germination Rating (Botrytis cinerea; 10 ppm)	Spore Germination Rating (Botrytis cinerea; 40 ppm)	Spore Germination Rating (Uromyces phaseoli [2]; 1.0 ppm, hydrochloride)	Spore Germination Rating (Uromyces phaseoli [2]; 2.5 ppm, hydrochloride)	Spore Germination Rating (Uromyces phaseoli [2]; 10 ppm, hydrochloride)	Spore Germination Rating (Uromyces phaseoli [2]; 40 ppm, hydrochloride)	Spore Germination Rating (Alternaria solani; 2.5 ppm, hydrochloride)	Spore Germination Rating (Alternaria solani; 10 ppm, hydrochloride)	Spore Germination Rating (Botrytis cinerea; 1.0 ppm, hydrochloride)
O=c1c(Cl)nsnc1Oc1ccc(F)cc1 [Compound 11, 3-chloro-5-(4-fluorophenoxy)-4H--1,2,6-thiadiazin-4-one]	0	4 (80-100)	0 (0-10)	0 (0-10)	0 (0-10)	4 (80-100)	0 (0-10)	0 (0-10)	0 (0-10)	4 (80-100)	1 (10-40)	0 (0-10)	0 (0-10)							
CC(=O)c1cccc(Oc2nsnc(Cl)c2=O)c1 [Compound 48, 3-(3-acetylphenoxy)-5-chloro-4H--1,2,6-thiadiazin-4-one]	100	0 (0-10)	0 (0-10)	0 (0-10)	0 (0-10)	4 (80-100)	3 (60-80)	0 (0-10)	0 (0-10)	4 (80-100)	4 (80-100)	0 (0-10)	0 (0-10)							
Cc1cc(Cl)ccc1Oc1nsnc(Cl)c1=O [Compound 55, 3-chloro-5-(4-chloro-2-methylphenoxy)-4H--1,2,6-thiadiazin-4-one]	100	0 (0-10)	0 (0-10)	0 (0-10)	0 (0-10)	4 (80-100)	2 (40-60)	1 (10-40)	0 (0-10)	4 (80-100)	3 (60-80)	1 (10-40)	1 (10-40)							
Cc1cc(Oc2nsnc(Cl)c2=O)cc(C)c1Cl [Compound 59, 3-chloro-5-[(4-chloro-3,5-dimethyl)phenoxy]-4H--1,2,6-thiadiazin-4-one]	0	2 (40-60)	2 (40-60)	0 (0-10)	0 (0-10)	4 (80-100)	4 (80-100)	4 (80-100)	4 (80-100)	4 (80-100)	4 (80-100)	4 (80-100)	3 (60-80)							
CC(=O)c1ccc(Oc2nsnc(Cl)c2=O)cc1 [Compound 47, 3-(4-acetylphenoxy)-5-chloro-4H--1,2,6-thiadiazin-4-one]	0	0 (0-10)	0 (0-10)	0 (0-10)	0 (0-10)	2 (40-60)	0 (0-10)	0 (0-10)	0 (0-10)	4 (80-100)	1 (10-40)	0 (0-10)	0 (0-10)							
Cc1ccc(Oc2nsnc(Cl)c2=O)cc1 [Compound 3, 3-chloro-5-(4-methylphenoxy)-4H--1,2,6-thiadiazin-4-one]	100	4 (80-100)	1 (10-40)	0 (0-10)	0 (0-10)	4 (80-100)	4 (80-100)	0 (0-10)	0 (0-10)	4 (80-100)	4 (80-100)	0 (0-10)	0 (0-10)							
O=c1c(Cl)nsnc1Oc1c(Cl)cc(Cl)cc1Cl [Compound 30, 3-chloro-5-(2,4,6-trichlorophenoxy)-4H--1,2,6-thiadiazin-4-one]	100	0 (0-10)	0 (0-10)	0 (0-10)	0 (0-10)	3 (60-80)	0 (0-10)	0 (0-10)	0 (0-10)	0 (0-10)	0 (0-10)	0 (0-10)	0 (0-10)							
CC(=O)c1ccccc1Oc1nsnc(Cl)c1=O [Compound 49, 3-(2-acetylphenoxy)-5-chloro-4H--1,2,6-thiadiazin-4-one]	100	4 (80-100)	1 (10-40)	0 (0-10)	0 (0-10)	4 (80-100)	3 (60-80)	2 (40-60)	0 (0-10)	1 (10-40)	1 (10-40)	0 (0-10)	0 (0-10)							
O=c1c(Cl)nsnc1Oc1ccc(Cl)c(Cl)c1 [Compound 16, 3-chloro-5-(3,4-dichlorophenoxy)-4H--1,2,6-thiadiazin-4-one]	90	1 (10-40)	0 (0-10)	0 (0-10)	0 (0-10)	1 (10-40)	0 (0-10)	0 (0-10)	0 (0-10)	4 (80-100)	1 (10-40)	0 (0-10)	1 (10-40)							
COc1ccc(Cl)c(Oc2nsnc(Cl)c2=O)c1 [Compound 51, 3-chloro-5-[(2-chloro-5-methoxy)phenoxy]-4H--1,2,6-thiadiazin-4-one]	0	0 (0-10)	0 (0-10)	0 (0-10)	0 (0-10)	4 (80-100)	4 (80-100)	1 (10-40)	0 (0-10)	4 (80-100)	3 (60-80)	0 (0-10)	0 (0-10)							
CC(C)(C)c1ccc(Oc2nsnc(Cl)c2=O)cc1 [Compound 4, 3-chloro-5-(4-tert-butylphnoxy)-4H--1,2,6-thiadiazin-4-one]	100	4 (80-100)	4 (80-100)	0 (0-10)	0 (0-10)	4 (80-100)	4 (80-100)	4 (80-100)	4 (80-100)	4 (80-100)	4 (80-100)	4 (80-100)	2 (40-60)							
CCOC(=O)c1ccc(Oc2nsnc(Cl)c2=O)cc1 [Compound 7, 3-chloro-5-(4-ethoxycarbonylphenoxy)-4H--1,2,6-thiadiazin-4-one]	100	0 (0-10)	0 (0-10)	0 (0-10)	0 (0-10)	4 (80-100)	4 (80-100)	4 (80-100)	4 (80-100)	4 (80-100)	3 (60-80)	2 (40-60)	3 (60-80)							
Cc1ccccc1Oc1nsnc(Cl)c1=O [Compound 22, 3-chloro-5-(2-methylphenoxy)-4H--1,2,6-thiadiazin-4-one]	100	4 (80-100)	2 (40-60)	1 (10-40)	0 (0-10)	3 (60-80)	0 (0-10)	0 (0-10)	0 (0-10)	2 (40-60)	0 (0-10)	0 (0-10)	0 (0-10)							
N#CCc1ccc(Oc2nsnc(Cl)c2=O)cc1 [Compound 46, 3-chloro-5-[(4-cyanomethyl)-phenoxy]4H--1,2,6-thiadiazin-4-one]	0	1 (10-40)	0 (0-10)	0 (0-10)	0 (0-10)	4 (80-100)	2 (40-60)	2 (40-60)	0 (0-10)	4 (80-100)	3 (60-80)	3 (60-80)	0 (0-10)							
O=C(OCc1ccccc1)Oc1ccc(Oc2nsnc(Cl)c2=O)cc1 [Compound 38, 3-chloro-5-[4-(phenylmethoxycarbonyloxy)phenoxyl]-4H-1,2,6-thiadiazin-4-one]	0	4 (80-100)	4 (80-100)	3 (60-80)	2 (40-60)	4 (80-100)	4 (80-100)	4 (80-100)	4 (80-100)	4 (80-100)	4 (80-100)	4 (80-100)	3 (60-80)							
3-chloro-5-(bromophenoxy)-4H-1,2,6-thiadiazin-4-one [Compound 33]		0 (0-10)	0 (0-10)	0 (0-10)	0 (0-10)	1 (10-40)	0 (0-10)	0 (0-10)	0 (0-10)	4 (80-100)	3 (60-80)	0 (0-10)	0 (0-10)							
Nc1ccc(Oc2nsnc(Cl)c2=O)cc1 [Compound 27, 5-(4-aminophenoxy)-3-chloro-4H--1,2,6-thiadiazine-4-one hydrochloride]														4 (80-100)	1 (10-40)	1 (10-40)	0 (0-10)	4 (80-100)	3 (60-80)	1 (10-40)
